For this experiment, the target named is T1, SIRT1 (Homo sapiens, UniProt Q96EB6).
T1 sequence (Q96EB6 1-747): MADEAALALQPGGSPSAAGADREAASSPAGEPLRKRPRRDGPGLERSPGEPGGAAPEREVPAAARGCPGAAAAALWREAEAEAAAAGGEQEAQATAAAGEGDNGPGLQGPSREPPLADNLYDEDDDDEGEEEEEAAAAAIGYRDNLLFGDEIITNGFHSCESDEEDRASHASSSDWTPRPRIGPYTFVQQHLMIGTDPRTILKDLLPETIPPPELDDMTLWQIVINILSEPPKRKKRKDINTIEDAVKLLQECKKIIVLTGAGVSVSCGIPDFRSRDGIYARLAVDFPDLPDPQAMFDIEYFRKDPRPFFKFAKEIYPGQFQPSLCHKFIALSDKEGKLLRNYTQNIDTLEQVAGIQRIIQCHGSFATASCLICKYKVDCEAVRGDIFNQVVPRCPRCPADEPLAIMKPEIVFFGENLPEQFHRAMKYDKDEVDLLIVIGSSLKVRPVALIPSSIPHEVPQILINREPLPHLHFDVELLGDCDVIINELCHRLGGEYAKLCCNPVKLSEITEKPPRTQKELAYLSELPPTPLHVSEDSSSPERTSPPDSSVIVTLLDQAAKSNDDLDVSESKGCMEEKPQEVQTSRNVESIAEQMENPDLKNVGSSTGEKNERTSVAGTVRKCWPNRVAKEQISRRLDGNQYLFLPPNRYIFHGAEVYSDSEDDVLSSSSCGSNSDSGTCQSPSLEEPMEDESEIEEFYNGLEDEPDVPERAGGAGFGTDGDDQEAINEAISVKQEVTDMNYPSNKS
Description: SIRT1 mass spectrometry (MS) based deacetylation assay. The experiment is classed as biochemical. Particulars: for IC50: Sirt1 Inhibitors.

[1] abbreviates: Sirt1 activators, fold activation as determined by MS.
The mark [2] stands for this setting: Sirt1 activators, mass spectrometry assay, read-out: ED50 MS ASSAY.
Setting [3] is: SIRT1 activation, mass spectrometry assay, read-out: ED50 MS ASSAY.
Setting [4] is: SIRT1 fold activation as determined by MS.

Molecules are shown by their SMILES. Where two headings read alike, the source gives them in different places.

As to `COc1cc(C(=O)Nc2ccccc2-c2nc3ncccc3o2)ccc1CN1CCN(C)CC1` [Compound 632], under setting [1], the “FOLD ACT. MS” value is “A (A (Fold activation >250%))”. Also, under setting [2], the EC50 is 5 to 50 µM.
For `N=C(Nc1ccc(Cl)cc1)Nc1cc(-c2nc3ncccc3o2)ccn1` [Compound 634] the same measures were “B (B (Fold Activation <250%))” and over 150 µM.
Regarding `COc1cc(NC(=N)Nc2cc(-c3nc4ncccc4o3)ccn2)cc(OC)c1OC` [Compound 635], the “FOLD ACT. MS” value under setting [1] is “A (A (Fold activation >250%))”. Under setting [2], the EC50 was over 150 µM.
For `COc1cc(C(=O)Nc2cc(-c3nc4ncccc4o3)ccn2)ccc1CN1CCN(C)CC1` [Compound 637] the same measures were “B (B (Fold Activation <250%))” and over 150 µM.
For `COc1cc(C(=O)Nc2cc(-c3nc4ncccc4o3)ccn2)ccc1CN1CCNCC1` [Compound 638] the same measures were “B (B (Fold Activation <250%))” and over 150 µM.
On to `CCn1ccc(C(=O)Nc2cc(-c3nc4ncccc4o3)ccn2)n1` [Compound 641], for which the “FOLD ACT. MS” value under setting [1] was “B (B (Fold Activation <250%))”. In addition, under setting [2], the EC50 was over 150 µM.
For `COc1cc(C(=O)Nc2cc(-c3nc4ncccc4o3)ccn2)ccc1CN1CCOCC1` [Compound 642] the same measures were “B (B (Fold Activation <250%))” and over 150 µM.
For `COc1cc(C(=O)Nc2cc(-c3nc4ncccc4o3)ccn2)ccc1CN1CCN(Cc2ccccc2)CC1` [Compound 643], the “FOLD ACT. MS” value under setting [1] was “B (B (Fold Activation <250%))”. Also, under setting [2], the EC50 was in the range of 5 to 50 µM.
For the molecule `Cc1cnc(C(=O)Nc2ccccc2-c2cn3c(CN4CCNCC4)csc3n2)cn1` [Compound 644], the “FOLD ACT. MS” value under setting [1] is given as “A (A (Fold activation >250%))”. Further, under setting [2], the EC50 lay in the range of 5 to 50 µM.
In the case of `O=C(Nc1ccccc1-c1cn2c(CN3CCNCC3)csc2n1)c1cnc2ccccc2c1` [Compound 645], the “FOLD ACT. MS” value under setting [1] is “A (A (Fold activation >250%))”. Besides, the EC50 under setting [2] was under 5 µM.
The matching figures for `O=C(Nc1ccccc1-c1nc2cc(CN3CCNCC3)cnc2s1)c1ccc2ccccc2n1` [Compound 646]: “A (A (Fold activation >250%))” and 5 to 50 µM.
The matching figures for `CN(C)CCOCc1csc2nc(-c3ccccc3NC(=O)c3cnc4ccccc4n3)cn12` [Compound 647]: “A (A (Fold activation >250%))” and under 5 µM.
As to `O=C(Nc1ccccc1-c1cn2c(CO)csc2n1)c1cnc2ccccc2n1` [Compound 648], the “FOLD ACT. MS” value under setting [1] is “B (B (Fold Activation <250%))”. Under setting [2], the EC50 was under 5 µM.
The matching figures for `CN1CCN(C(=O)Cc2csc3nc(-c4ccccc4NC(=O)c4cnc5ccccc5n4)cn23)CC1` [Compound 649]: “A (A (Fold activation >250%))” and under 5 µM.
On to `CC(=O)N1CCN(Cc2csc3nc(-c4ccccc4NC(=O)c4cnc5ccccc5n4)cn23)CC1` [Compound 651], for which the “FOLD ACT. MS” value under setting [1] is given as “A (A (Fold activation >250%))”. Moreover, the EC50 under setting [2] was under 5 µM.
Usually IC50 stands for the point on the concentration scale where inhibition reaches its midpoint. For `O=S(=O)(Nc1cc(-c2nc3ncccc3o2)ccn1)c1ccc(Cl)cc1` [Compound 652], the IC50 (mass spectrometry assay) lay within 51 to 100 µM.
As to `COc1ccc(C)cc1S(=O)(=O)Nc1cc(-c2nc3ncccc3o2)ccn1` [Compound 653], where the note is “mass spectrometry assay”, the 50% inhibitory concentration (IC50) lay within 101 to 150 µM.
Still for that read-out and setting: the result for `O=S(=O)(Nc1cccc(-c2nc3ccncc3s2)c1)c1ccc(S(=O)(=O)c2ccccc2)s1` [Compound 654] reads over 150 µM.
`COc1ccc(NC(=S)Nc2cc(-c3nc4ncccc4o3)ccn2)cc1OC` [Compound 660]: the “FOLD ACT. MS” value under setting [1] is “B (B (Fold Activation <250%))”. Besides, the EC50 under setting [2] is 5 to 50 µM.
Consider `COc1cc(NC(=S)Nc2cc(-c3nc4ncccc4o3)ccn2)cc(OC)c1` [Compound 661], for which, under setting [1], the “FOLD ACT. MS” value is recorded as “B (B (Fold Activation <250%))”. Besides, under setting [2], the EC50 is under 5 µM.
For the molecule `COc1cc(NC(=S)Nc2cc(-c3nc4ncccc4o3)ccn2)cc(OC)c1OC` [Compound 663], the “FOLD ACT. MS” value under setting [1] is recorded as “B (B (Fold Activation <250%))”. Further, the EC50 under setting [2] lay within 5 to 50 µM.
Take `FC(F)(F)c1cccc(Cl)c1NC(=S)Nc1cc(-c2nc3ncccc3o2)ccn1` [Compound 667]: the EC50 under setting [2] is 5 to 50 µM.
With `O=C(Nc1ccccc1-c1nc2ncccc2o1)c1ccc(Oc2ncccn2)cc1` [Compound 668], the “FOLD ACT. MS” value under setting [1] was “B (B (Fold Activation <250%))”. In addition, the EC50 under setting [2] was 5 to 50 µM.
`COc1ccc(OC(=O)Nc2ccccc2-c2nc3ncccc3o2)cc1OC` [Compound 670] gave an EC50 of 5 to 50 µM. The “FOLD ACT. MS” value under setting [1] was “B (B (Fold Activation <250%))”.
For `O=C(Nc1ccccc1-c1cn2c(CNCC(O)CO)csc2n1)c1cnc2ccccc2n1` (stereo not shown) [Compound 676], the “FOLD ACT. MS” value under setting [1] was “A (A (Fold activation >250%))”. The EC50 under setting [2] is under 5 µM.
For `O=C1CN(Cc2csc3nc(-c4ccccc4NC(=O)c4cnc5ccccc5n4)cn23)CCN1` [Compound 677] the same measures were “A (A (Fold activation >250%))” and under 5 µM.
The matching figures for `Cc1cc(C(=O)Nc2ccccc2-c2cn3c(CN4CCNCC4)csc3n2)n(C)n1` [Compound 678]: “B (B (Fold Activation <250%))” and 5 to 50 µM.
Regarding `COc1ccc(C(=O)Nc2ccccc2-c2cn3c(CN4CCNCC4)csc3n2)cc1F` [Compound 679], the “FOLD ACT. MS” value under setting [1] is reported as “B (B (Fold Activation <250%))”. Under setting [2], the EC50 was in the range of 5 to 50 µM.
The matching figures for `O=C(Nc1ccccc1-c1cn2c(CCN3CCNCC3)csc2n1)c1cnc2ccccc2n1` [Compound 680]: “A (A (Fold activation >250%))” and under 5 µM.
Take `COc1cc(C(=O)Nc2ccccc2-c2nc3cc(CN4CCOCC4)cnc3s2)cc(OC)c1OC` [Compound 681]: the EC50 under setting [2] was in the range of 5 to 50 µM.
With `O=C(Nc1ccccc1-c1nc2cc(CN3CCOCC3)cnc2s1)c1ccc2c(c1)OCO2` [Compound 683], under setting [3], the EC50 is 5 to 50 µM. The “FOLD ACT. MS” value under setting [4] was “B (B (Fold Activation <250%))”.
For `Cc1ccc(C(=O)Nc2ccccc2-c2nc3cc(CN4CCOCC4)cnc3s2)cc1C` [Compound 684] the same measures were 5 to 50 µM and “B (B (Fold Activation <250%))”.
As to `N#Cc1cccc(C(=O)Nc2ccccc2-c2nc3cc(CN4CCOCC4)cnc3s2)c1` [Compound 685], the EC50 under setting [3] is under 5 µM. Further, the “FOLD ACT. MS” value under setting [4] is recorded as “B (B (Fold Activation <250%))”.
Turning to `CN(C)c1cccc(C(=O)Nc2ccccc2-c2nc3cc(CN4CCOCC4)cnc3s2)c1` [Compound 686], under setting [3], the EC50 was under 5 µM. In addition, the “FOLD ACT. MS” value under setting [4] was “A (A (Fold activation >250%))”.
For `COc1cc(C(=O)Nc2ccccc2-c2nc3cc(CN(C)C)cnc3s2)cc(OC)c1OC` [Compound 689] the same measures were 5 to 50 µM and “A (A (Fold activation >250%))”.
In the case of `O=C(Nc1ccccc1-c1nc2ccc(CN3CCNCC3)nc2s1)c1cnc2ccccc2n1` [Compound 690], under setting [3], the EC50 was under 5 µM. Also, the “FOLD ACT. MS” value under setting [4] was “A (A (Fold activation >250%))”.
With `O=C(Nc1ccccc1-c1cn2c(CN3CCNCC3)csc2n1)c1cccc2cccnc12` [Compound 692], the EC50 under setting [3] fell in the range of 101 to 150 µM. Further, the “FOLD ACT. MS” value under setting [4] is “B (B (Fold Activation <250%))”.
For `O=C(Nc1ccccc1-c1cn2c(CN3CCNCC3)csc2n1)c1cc(F)cc(F)c1` [Compound 695] the same measures were under 5 µM and “A (A (Fold activation >250%))”.
As for `O=C(Nc1ccccc1-c1cn2c(CN3CCNCC3)csc2n1)c1cccc(OC(F)(F)F)c1` [Compound 698], under setting [3], the EC50 was under 5 µM. Besides, under setting [4], the “FOLD ACT. MS” value is listed as “A (A (Fold activation >250%))”.
With `O=C(Nc1ccccc1-c1cn2c(COCC(O)CO)csc2n1)c1cnc2ccccc2n1` (stereo not shown) [Compound 699], the EC50 under setting [3] lay within 5 to 50 µM. The “FOLD ACT. MS” value under setting [4] was “A (A (Fold activation >250%))”.
For `COc1cc(C(=O)Nc2ccccc2-c2nc3cc(CN4CCN(C)CC4)cnc3s2)cc(OC)c1OC` [Compound 702] the same measures were 5 to 50 µM and “A (A (Fold activation >250%))”.
As for `Cc1csc2nc(-c3ccccc3NC(=O)c3cnc4ccccc4n3)cn12` [Compound 707], the EC50 under setting [3] is under 5 µM. Also, the “FOLD ACT. MS” value under setting [4] is given as “A (A (Fold activation >250%))”.
Take `O=C(Nc1ccccc1-c1cn2c(CN3CCNCC3)csc2n1)c1ccc(-c2ccccc2)cc1` [Compound 708]: the EC50 under setting [3] was under 5 µM. For the same molecule, the “FOLD ACT. MS” value under setting [4] is listed as “A (A (Fold activation >250%))”.
`O=C(Nc1ccccc1-c1cn2c(CN3CCNCC3)csc2n1)c1cccc(-c2ccccc2)c1` [Compound 710]: under setting [3], the EC50 was under 5 µM. Besides, the “FOLD ACT. MS” value under setting [4] is “A (A (Fold activation >250%))”.
Take `CC(C)(C)OC(=O)CNCc1csc2nc(-c3ccccc3NC(=O)c3cnc4ccccc4n3)cn12` [Compound 711]: under setting [3], the EC50 lay in the range of 5 to 50 µM. Besides, the “FOLD ACT. MS” value under setting [4] was “B (B (Fold Activation <250%))”.

The record behind these values is patent US8044198B2, “Sirtuin modulating compounds” (Sirtris Pharmaceuticals, Inc., priority 2005, dated 2011).
